Holding throughout (assay): [3H]-MPP+ uptake inhibition assay in HEK-293 cells
Holding throughout (assay type): cell-based

One data set deals with T1, OCT1 (Homo sapiens, UniProt O15245).
T1 construct: expressed in transfected cells
T1 sequence (O15245 1-554): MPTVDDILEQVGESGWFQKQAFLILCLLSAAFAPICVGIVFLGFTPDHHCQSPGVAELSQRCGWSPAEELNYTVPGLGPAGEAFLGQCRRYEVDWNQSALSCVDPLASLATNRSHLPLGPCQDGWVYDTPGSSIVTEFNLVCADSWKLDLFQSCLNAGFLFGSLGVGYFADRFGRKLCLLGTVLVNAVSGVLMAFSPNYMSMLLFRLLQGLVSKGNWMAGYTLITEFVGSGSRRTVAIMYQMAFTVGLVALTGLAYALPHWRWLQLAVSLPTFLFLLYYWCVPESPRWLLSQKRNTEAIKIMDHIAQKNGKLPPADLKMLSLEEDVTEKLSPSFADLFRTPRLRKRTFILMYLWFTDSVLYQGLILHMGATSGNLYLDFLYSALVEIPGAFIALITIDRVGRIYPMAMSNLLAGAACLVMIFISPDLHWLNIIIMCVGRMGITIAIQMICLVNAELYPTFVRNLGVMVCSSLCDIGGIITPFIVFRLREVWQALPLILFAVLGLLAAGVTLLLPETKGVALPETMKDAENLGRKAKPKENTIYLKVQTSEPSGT
The settings on record: 10 min uptake; for IC50: HEK cells stably expressing human OCT1. The procedure: (§1) HEK–293 cells (LGC Standards GmbH, Germany) stably expressing human isoforms of wild type organic cation transporters 1–3 (OCT1–3) were cultured in Dulbecco’s modified Eagle’s medium (DMEM; Sigma-Aldrich) with high glucose (4.5 g/L) and L-glutamine (584 mg/L) supplemented with 10% foetal calf serum (FCS; Biowest) and penicillin/streptomycin mixture (50 mg/L; Sigma/Aldrich) at 37 °C in a humidified atmosphere (5% CO2). The selection reagent was Geneticin (150 U/mL; Merck, Germany) for all three cell lines. Cells were seeded onto poly-D-lysine (0.05 mg/mL; Sigma-Aldrich) precoated clear bottom Corning 96 well white assay plate (Sigma-Aldrich) at the density of 4 × 10^4 cells per well 24 h prior to the experiment.
(§2) The assay was performed as previously described with slight modification. Briefly, on the day of the experiment, cells were washed once with 100 µL Krebs-HEPES buffer (KHB; 10 mM HEPES, 120 mM NaCl, 3 mM KCl, 2 mM CaCl2·2H2O, 2 mM MgCl2·6H2O, 5 mM D-(+)- glucose, pH 7.3) at room temperature. Cells were preincubated for 10 min in 50 µL of RT KHB containing increasing concentrations of tested compounds previously dissolved in dimethyl sulfoxide (DMSO; final concentration in working solution was 1%). After that, the preincubation solution was quickly removed and replaced with 50 µL of uptake solution containing the aforementioned components with the addition of 50 nM [^3H]-1-methyl-4-phenylpyridinium ([^3H]-MPP^+; 60 Ci/mmol; American Radiolabeled Chemicals, Saint Louis, MO, USA). After the 10 min uptake at RT, the transport was stopped by washing cells with 100 µL of ice-cold KHB and adding 200 µL of Ultima GoldTM XR scintillation cocktail (PerkinElmer, MA, USA). The plates were shaken, placed into Wallac 1450 MicroBeta TriLux Liquid Scintillation Counter and Lumi (GMI, Ramsey, MN, USA) and the released radioactivity was measured for 3 min. Nonspecific [^3H]-MPP^+ uptake was measured in the presence of 100 µM decynium-22 and the data were plotted as a percentage of uptake in the presence of 1% DMSO from which the value of the nonspecific uptake was subtracted. Nonlinear regression analysis (GraphPad Prism version 5.0, GraphPad Software, San Diego, CA, USA) was used for calculation of IC50 values.

In another data set the target is T2, OCT2 (Homo sapiens, UniProt O15244).
T2 construct: expressed in transfected cells
T2 sequence (O15244 1-555): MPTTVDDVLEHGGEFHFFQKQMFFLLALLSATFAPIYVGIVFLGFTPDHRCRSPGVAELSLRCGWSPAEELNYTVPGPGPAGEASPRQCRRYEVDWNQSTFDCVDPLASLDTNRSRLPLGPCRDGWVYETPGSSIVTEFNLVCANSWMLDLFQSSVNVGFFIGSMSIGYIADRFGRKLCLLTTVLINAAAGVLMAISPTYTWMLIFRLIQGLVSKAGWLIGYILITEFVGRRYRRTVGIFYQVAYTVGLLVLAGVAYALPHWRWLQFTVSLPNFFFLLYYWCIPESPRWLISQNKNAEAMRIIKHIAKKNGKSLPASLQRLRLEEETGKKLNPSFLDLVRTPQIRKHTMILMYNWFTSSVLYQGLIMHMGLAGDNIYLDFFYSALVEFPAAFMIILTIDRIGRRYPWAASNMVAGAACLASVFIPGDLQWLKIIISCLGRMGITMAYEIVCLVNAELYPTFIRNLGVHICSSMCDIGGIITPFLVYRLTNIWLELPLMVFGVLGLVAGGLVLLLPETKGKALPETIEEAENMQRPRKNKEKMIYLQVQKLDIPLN
The note with it: for IC50: HEK cells stably expressing human OCT2, 10 min uptake; for interaction with OCT2: [3H]-MPP+ uptake inhibition in HEK OCT2 cells. The procedure: as §1, §2

The target in a further data set is T3, OCT3 (Homo sapiens, UniProt O75751).
T3 construct: expressed in transfected cells
T3 sequence (O75751 1-556): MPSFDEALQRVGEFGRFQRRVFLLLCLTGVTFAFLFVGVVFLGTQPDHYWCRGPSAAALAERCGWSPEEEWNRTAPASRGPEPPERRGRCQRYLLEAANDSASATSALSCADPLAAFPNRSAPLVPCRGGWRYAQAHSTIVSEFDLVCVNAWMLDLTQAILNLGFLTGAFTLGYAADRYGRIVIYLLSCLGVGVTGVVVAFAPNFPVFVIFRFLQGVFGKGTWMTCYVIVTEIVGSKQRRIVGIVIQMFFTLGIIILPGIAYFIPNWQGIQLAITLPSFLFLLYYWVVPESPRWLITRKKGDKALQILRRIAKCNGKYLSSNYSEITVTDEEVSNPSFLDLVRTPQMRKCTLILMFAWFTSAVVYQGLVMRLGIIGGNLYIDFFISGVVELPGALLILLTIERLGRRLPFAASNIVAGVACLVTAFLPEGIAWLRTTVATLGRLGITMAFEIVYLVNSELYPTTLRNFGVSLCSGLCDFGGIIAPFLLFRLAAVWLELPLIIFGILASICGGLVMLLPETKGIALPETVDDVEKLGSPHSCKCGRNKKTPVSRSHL
The note with it: HEK cells stably expressing human OCT3; 10 min uptake. The procedure: as §1, §2

On to `CCNC(=S)N/N=C/c1cc(C[N+](C)(C)C)ccc1O` [[H2L^Et]Cl], for which the values for the half-inhibitory concentration (IC50) at OCT1, on OCT2 and at OCT3 were 169 ± 26.2 µM, 236 ± 97.1 µM and 63.1 ± 8.9 µM, respectively.

As to `C[N+](C)(C)Cc1ccc(O)c(/C=N/NC(N)=S)c1` [[H2L^H]Cl], the half-maximal inhibitory concentration (IC50) (usually the midpoint of a concentration-inhibition curve) was 740 ± 195 µM on OCT1, > 4000 µM on OCT2 and 105 ± 32.8 µM against OCT3. Moreover, it took 740 µM to reach half-maximal inhibition against OCT1 (HEK-293 cells stably expressing human OCT1, pH 7.3, probe [3H]-MPP+ (50 nM)) (IC50 at 10 min). Moreover, the “interaction with OCT2” value on OCT2 is recorded as “no interaction”.

On to `CNC(=S)N/N=C/c1cc(C[N+](C)(C)C)ccc1O` [[H2L^Me]Cl], for which the IC50 on OCT1 is 391 ± 40 µM; on OCT2, > 4000 µM; against OCT3, 103 ± 23.4 µM. The “interaction with OCT2” value on OCT2 is “no interaction”.

For the compound `C[N+](C)(C)Cc1ccc(O)c(/C=N/NC(=S)Nc2ccccc2)c1` [[H2L^Ph]Cl], the IC50 against OCT1 worked out at 119 ± 50 µM; against OCT2 it was 371 ± 123 µM; against OCT3, 27.8 ± 5 µM.

The values above are taken from PMC7565988, “Insight into the Anticancer Activity of Copper(II) 5-Methylenetrimethylammonium-Thiosemicarbazonates and Their Interaction with Organic Cation Transporters” (Biomolecules, 2020).
